Experimental findings from US20100022542A1, “COMPOUNDS EXHIBITING THROMBOPOIETIN RECEPTOR AGONISM” (Shionogi & Co., Ltd., priority 2000, published 2010) are described below.

As usually defined, the EC50 is the midpoint of the concentration-response curve. A lower EC50 goes with a more potent agent.

SMILES strings stand for the structures.

In this assay the target is T1, human TPO receptor (hTPOR) (Homo sapiens, UniProt P40238).
T1 construct: expressed in transfected cells; host or cells: BaF-B03 (murine IL-3 dependent cell line)
T1 sequence (P40238 26-635): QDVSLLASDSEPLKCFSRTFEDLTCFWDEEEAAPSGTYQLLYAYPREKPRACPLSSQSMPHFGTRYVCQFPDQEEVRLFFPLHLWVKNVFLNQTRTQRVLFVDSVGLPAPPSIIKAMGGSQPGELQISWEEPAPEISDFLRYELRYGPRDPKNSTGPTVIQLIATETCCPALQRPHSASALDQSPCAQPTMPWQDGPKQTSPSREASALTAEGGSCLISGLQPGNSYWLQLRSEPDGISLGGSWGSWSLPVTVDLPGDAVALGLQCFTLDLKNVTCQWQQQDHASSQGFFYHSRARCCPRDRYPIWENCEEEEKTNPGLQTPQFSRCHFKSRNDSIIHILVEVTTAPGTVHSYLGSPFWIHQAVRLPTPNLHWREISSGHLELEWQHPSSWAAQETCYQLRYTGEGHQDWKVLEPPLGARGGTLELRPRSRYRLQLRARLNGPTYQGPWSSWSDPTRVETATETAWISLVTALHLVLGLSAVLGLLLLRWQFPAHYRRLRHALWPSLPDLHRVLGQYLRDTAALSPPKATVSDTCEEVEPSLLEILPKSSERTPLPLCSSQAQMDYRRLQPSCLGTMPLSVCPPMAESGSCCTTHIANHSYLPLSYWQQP
As to the kind of experiment: Proliferation of TPO dependent BaF/hTPOR cells, WST-1, thrombopoietic activity ED50 (Test Example 3). Format: cell-based. To be noted: 20 h incubation then WST-1 4 h, absorbance at 450 nm. The text has this:
FIG. 2: The chart represents proliferation of the human TPO dependent cells bearing human TPO receptors by the present invention compound, wherein the x-axis is concentration of the present invention compound, and the y-axis is the absorbance as an indicator of cell proliferation. Open circles indicate a response of human TPO, and closed circles indicate a response of the compound (B-1).
The TPO dependent BaF/hTPOR cell line which was established by introducing human TPO receptor (hTPOR) into BaF-B03 cells according to Collins et al (J. Cell. Physiol., 137:293-298 (1988)) was used to test the thrombopoietic activity of the present compound. The DNA sequences and encoded peptide sequences for human hTPOR have been described by Vigon et al (Proc. Natl. Acad. Sci. USA, 89:5640-5644 (1992)). TPO dose not have any ability to support proliferation of interleukin-3 dependent parental cell line BaF-B03. BAF/hTPOR cells were maintained in RPMI medium and WEHI-3B conditioned medium as a source of murine interleukin-3 (IL-3). These cells were washed and resuspended in RPMI medium without a source of murine IL-3 and seeded into each well of 96-well microtiter plates at a density of 5×10^4 cells per well in the absence or presence of various concentration of hTPO or the present compound. After incubation at 37° C. for 20 hours in the 5% CO2 incubator, 10% WST-1 reagent (Takara Biomedicals, Japan) was added to each wells and the cells were further incubated for 4 hours. Effect of the present compound on the growth of BAF/mTPOR cell line which was established by introducing murine TPO receptor (mTPOR) into BAF-B03 cells is shown in FIG. 3. Table 8 exemplifies the ED50 for tested compounds of the present invention, wherein the ED50 is the half concentration of the concentration showing the maximum thrombopoietic activity.

Consider `O=C(O)/C(Cl)=C/c1ccc(C(=O)Nc2nc(-c3ccc(Br)cc3F)cs2)cc1` [Compound A-69], for which the EC50 is 71 nM.
On to `Cc1ccc(-c2csc(NC(=O)c3ccc(/C=C(\Cl)C(=O)O)cc3)n2)c(F)c1` [Compound A-70], for which the EC50 worked out at 89 nM.
Next, `O=C(O)/C(Cl)=C/c1ccc(C(=O)Nc2nc(-c3cccc(F)c3F)cs2)cc1` [Compound A-72]: 119 nM; `O=C(O)/C(Cl)=C/c1ccc(C(=O)Nc2nc(-c3ccc4c(c3)CCC4)cs2)cc1` [Compound A-73]: 75 nM; `O=C(O)/C(Cl)=C/c1ccc(C(=O)Nc2nc(-c3ccc4c(c3)CCO4)cs2)cc1` [Compound A-74]: 472 nM.
`O=C(O)/C(Cl)=C/c1ccc(C(=O)Nc2nc(-c3ccc(F)c(Cl)c3)cs2)cc1` [Compound A-75]: the concentration for a half-maximal effect (EC50) was 73 nM.
Next, `O=C(O)/C(Cl)=C/c1ccc(C(=O)Nc2nc(-c3ccc(OC(F)(F)F)cc3)cs2)cc1` [Compound A-76]: 205 nM; `O=C(O)/C(Cl)=C/c1ccc(C(=O)Nc2nc(-c3cc(F)c(F)c(F)c3F)cs2)cc1` [Compound A-77]: 110 nM.
Next, `CSc1ccc(-c2csc(NC(=O)c3ccc(/C=C(\Cl)C(=O)O)cc3)n2)cc1` [Compound A-78]: 408 nM; `O=C(O)/C(Cl)=C/c1ccc(C(=O)Nc2nc(-c3cc(C(F)(F)F)ccc3F)cs2)cc1` [Compound A-79]: 410 nM.
Next, `O=C(O)/C(Cl)=C/c1ccc(C(=O)Nc2nc(-c3cccc(-c4ccccc4)c3F)cs2)cc1` [Compound A-80]: 66 nM; `O=C(O)/C(Cl)=C/c1ccc(C(=O)Nc2nc(-c3cccc(Br)c3F)cs2)cc1` [Compound A-81]: 71 nM.
On to `COc1cccc(-c2csc(NC(=O)c3ccc(/C=C(\Cl)C(=O)O)cc3)n2)c1F` [Compound A-82], for which the concentration giving a half-maximal response (EC50) is 199 nM.
In turn, `Cc1cccc(-c2csc(NC(=O)c3ccc(/C=C(\Cl)C(=O)O)cc3)n2)c1F` [Compound A-83] registered a concentration for a half-maximal effect (EC50) of 77 nM.
In turn, `CCCCCc1cccc(-c2csc(NC(=O)c3ccc(/C=C(\Cl)C(=O)O)cc3)n2)c1F` [Compound A-84] registered an EC50 of 23 nM.
As for `O=C(O)/C(Cl)=C/c1ccc(C(=O)Nc2nc(-c3ccc(F)c(Br)c3F)cs2)cc1` [Compound A-86], the concentration for a half-maximal effect (EC50) came out at 243 nM.
`Cc1ccc(C)c(-c2csc(NC(=O)c3ccc(/C=C(\Cl)C(=O)O)cc3)n2)c1` [Compound A-87]: the EC50 was determined as 710 nM.
Turning to `O=C(O)/C(Cl)=C/c1ccc(C(=O)Nc2nc(-c3cccc(-c4ccc(F)cc4)c3F)cs2)cc1` [Compound A-88], the midpoint of the response, the EC50, lay at 28 nM. Compared with the last molecule, the EC50 is about 25-fold lower.
The molecule `O=C(O)/C(Cl)=C/c1ccc(C(=O)Nc2nc(-c3ccc(F)c(-c4ccccc4)c3F)cs2)cc1` [Compound A-89] had an EC50 of 72 nM. Against the preceding molecule, the EC50 is about 2.6-fold higher.
Next, `O=C(O)/C(Cl)=C/c1ccc(C(=O)Nc2nc(-c3cccc(Cl)c3Cl)cs2)cc1` [Compound A-91]: 76 nM.
Under `CCCCCCc1cccc(-c2csc(NC(=O)c3ccc(/C=C(\Cl)C(=O)O)cc3)n2)c1F` [Compound A-93] stands 8 nM; under `NC(=O)/C=C/c1ccc(C(=O)Nc2nc(-c3ccc(Cl)c(Cl)c3)cs2)cc1` [Compound B-2], 257 nM.
Next, `CNC(=O)/C=C/c1ccc(C(=O)Nc2nc(-c3ccc(Cl)c(Cl)c3)cs2)cc1` [Compound B-3]: 156 nM; `CNC(=O)C(C)=Cc1ccc(C(=O)Nc2nc(-c3ccc(Cl)c(Cl)c3)cs2)cc1` [Compound B-4]: 89 nM; `CC(=Cc1ccc(C(=O)Nc2nc(-c3ccc(Cl)c(Cl)c3)cs2)cc1)C(=O)N(C)C` [Compound B-5]: 123 nM.
Consider `CCNC(=O)C(C)=Cc1ccc(C(=O)Nc2nc(-c3ccc(Cl)c(Cl)c3)cs2)cc1` [Compound B-6], for which the EC50 was 84 nM. The EC50 values of the last two molecules are within 1.5-fold of each other.
Molecule `CCCNC(=O)C(C)=Cc1ccc(C(=O)Nc2nc(-c3ccc(Cl)c(Cl)c3)cs2)cc1` [Compound B-7] yielded a concentration for a half-maximal effect (EC50) of 59 nM.
Consider `CC(=Cc1ccc(C(=O)Nc2nc(-c3ccc(Cl)c(Cl)c3)cs2)cc1)C(=O)N1CCOCC1` [Compound B-8], for which the midpoint of the response, the EC50, lay at 378 nM.
On to `C/C(=C\c1ccc(C(=O)Nc2nc(-c3ccc(Cl)c(Cl)c3)cs2)cc1)C(=O)NCc1ccccc1` [Compound B-9], for which the concentration giving a half-maximal response (EC50) worked out at 82 nM.
`C/C(=C\c1ccc(C(=O)Nc2nc(-c3ccc(Cl)c(Cl)c3)cs2)cc1)C(=O)Nc1nccs1` [Compound B-11] gave an EC50 of 236 nM.
For the molecule `C/C(=C\c1ccc(C(=O)Nc2nc(-c3ccc(Cl)c(Cl)c3)cs2)cc1)C(=O)Nc1cccnc1` [Compound B-12], the concentration for a half-maximal effect (EC50) stood at 207 nM.
With `C/C(=C\c1ccc(C(=O)Nc2nc(-c3ccc(Cl)c(Cl)c3)cs2)cc1)C(=O)NCc1ccc(C(F)(F)F)cc1` [Compound B-13], the concentration for a half-maximal effect (EC50) was 213 nM.
Under `C/C(=C\c1ccc(C(=O)Nc2nc(-c3ccc(Cl)c(Cl)c3)cs2)cc1)C(=O)NCc1ccc(F)cc1` [Compound B-14] stands 305 nM.
Under `C/C(=C\c1ccc(C(=O)Nc2nc(-c3ccc(Cl)c(Cl)c3)cs2)cc1)C(=O)NCc1cccs1` [Compound B-15] stands 197 nM; under `C/C(=C\c1ccc(C(=O)Nc2nc(-c3ccc(Cl)c(Cl)c3)cs2)cc1)C(=O)NCc1ccco1` [Compound B-16], 182 nM; under `CC/C(=C\c1ccc(C(=O)Nc2nc(-c3ccc(Cl)c(Cl)c3)cs2)cc1)C(N)=O` [Compound B-17], 244 nM.
Next, `CC/C(=C\c1ccc(C(=O)Nc2nc(-c3ccc(Cl)c(Cl)c3)cs2)cc1)C(=O)NC` [Compound B-18]: 150 nM; `CCNC(=O)/C(=C/c1ccc(C(=O)Nc2nc(-c3ccc(Cl)c(Cl)c3)cs2)cc1)CC` [Compound B-19]: 150 nM; `CC/C(=C\c1ccc(C(=O)Nc2nc(-c3ccc(Cl)c(Cl)c3)cs2)cc1)C(=O)NCc1ccccc1` [Compound B-20]: 425 nM.
Consider `C/C(=C\c1ccc(C(=O)Nc2nc(-c3ccc(F)c(F)c3)cs2)cc1)C(N)=O` [Compound B-25], for which the midpoint of the response, the EC50, lay at 367 nM.
For the molecule `CNC(=O)/C(C)=C/c1ccc(C(=O)Nc2nc(-c3ccc(F)c(F)c3)cs2)cc1` [Compound B-26], the concentration for a half-maximal effect (EC50) came out at 346 nM.
`C/C(=C\c1ccc(C(=O)Nc2nc(-c3ccc(Cl)c(Cl)c3)cs2)cc1)C(=O)NCCN(C)C` [Compound B-27] returned an EC50 of 707 nM.
In turn, `C/C(=C\c1ccc(C(=O)Nc2nc(-c3ccc(Cl)c(Cl)c3)cs2)cc1)C(=O)NCCC(=O)O` [Compound B-28] yielded a half-maximal effective concentration (EC50) of 565 nM.
Take `C/C(=C\c1ccc(C(=O)Nc2nc(-c3ccc(Cl)c(Cl)c3)cs2)cc1)C(=O)NN(C)C` [Compound B-29]: it took 181 nM to reach a half-maximal effect (EC50).
Consider `C/C(=C\c1ccc(C(=O)Nc2nc(-c3ccc(Cl)c(Cl)c3)cs2)cc1)C(=O)Nc1ccccc1` [Compound B-30], for which the concentration for a half-maximal effect (EC50) is 177 nM.
Molecule `C/C(=C\c1ccc(C(=O)Nc2nc(-c3ccc(Cl)c(Cl)c3)cs2)cc1)C(=O)NCC(F)(F)F` [Compound B-31] displayed a half-maximal effective concentration (EC50) of 178 nM.
With `CSCCCNC(=O)/C(C)=C/c1ccc(C(=O)Nc2nc(-c3ccc(Cl)c(Cl)c3)cs2)cc1` [Compound B-32], the concentration for a half-maximal effect (EC50) turned out to be 123 nM.
Take `C/C(=C\c1ccc(C(=O)Nc2nc(-c3ccc(Cl)c(Cl)c3)cs2)cc1)C(=O)NC(C)c1ccccc1` (centres unmarked) [Compound B-33]: the response was half-maximal at 372 nM (EC50).
`C/C(=C\c1ccc(C(=O)Nc2nc(-c3ccc(Cl)c(Cl)c3)cs2)cc1)C(=O)NC[Si](C)(C)C` [Compound B-34]: the EC50 was 398 nM.
Under `C/C(=C\c1ccc(C(=O)Nc2nc(-c3ccc(Cl)c(Cl)c3)cs2)cc1)C(=O)NC1CC1` [Compound B-36] stands 163 nM; under `C/C(=C\c1ccc(C(=O)Nc2nc(-c3ccc(Cl)c(Cl)c3)cs2)cc1)C(=O)NC1CCCC1` [Compound B-38], 239 nM.
The molecule `C/C(=C\c1ccc(C(=O)Nc2nc(-c3ccc(Cl)c(Cl)c3)cs2)cc1)C(=O)NC(C)(C)C` [Compound B-39] registered an EC50 of 729 nM. Against the preceding molecule, the EC50 is about 3.1-fold higher.
As to `C#CCNC(=O)/C(C)=C/c1ccc(C(=O)Nc2nc(-c3ccc(Cl)c(Cl)c3)cs2)cc1` [Compound B-40], the response was half-maximal at 201 nM (EC50).
